In patent publication US20090253618A1, “NEURONAL DIFFERENTIATION-INDUCING PEPTIDE AND USE THEREOF” (TOAGOSEI CO., LTD, priority 2005, published 2009):
Ends that are not written are not given here.

Columns and labels:
[1] = system: neural stem cells procured from mice; experiment: Neuronal differentiation-inducing activity in mouse neural stem cell culture (immune antibody procedure, MAPs and NeuN markers); type: cell-based; conditions: same tests as for samples 1 and 6 (10 ng/mL and 100 ng/mL, 24 hours), concentration of the result not stated
[2] = system: adipose stem cells procured from humans; experiment: Neuronal differentiation-inducing activity in human adipose stem cell culture (immune antibody procedure, MAPs and NeuN markers); type: cell-based; conditions: same tests as for samples 1 and 6 (10 ng/mL and 100 ng/mL, 24 hours), concentration of the result not stated

Row | Substance | degree of neuronal differentiation [1] | degree of neuronal differentiation [2]
1 | YARAAARQARA-SLTHLCRLEIRSSIK (YARAAARQARASLTHLCRLEIRSSIK) [sample 8] | significant neuronal differentiation | significant neuronal differentiation
2 | YARAAARQARA-SLQHICRTVICNCTT (YARAAARQARASLQHICRTVICNCTT) [sample 14] | significant neuronal differentiation | significant neuronal differentiation
3 | YARAAARQARA-TLQHFCRLAINKCT (YARAAARQARATLQHFCRLAINKCT) [sample 12] | significant neuronal differentiation | significant neuronal differentiation
4 | YARAAARQARA-TLLSLCRVAVRRALG (YARAAARQARATLLSLCRVAVRRALG) [sample 3] | significant neuronal differentiation | significant neuronal differentiation
5 | YARAAARQARA-PLQELCRQRIVAAVG (YARAAARQARAPLQELCRQRIVAAVG) [sample 11] | significant neuronal differentiation | significant neuronal differentiation
6 | YARAAARQARA-SLQHICRMSI (YARAAARQARASLQHICRMSI) [sample 17, PTD4 plus 10 residues from the N terminal of the BC-box of mWSB-1] | significant neuronal differentiation | significant neuronal differentiation
7 | YARAAARQARA-SLQYLCRFVI (YARAAARQARASLQYLCRFVI) [sample 15, PTD4 plus 10 residues from the N terminal of the BC-box of hSOCS-6] | significant neuronal differentiation | significant neuronal differentiation
8 | YARAAARQARA-SLQYLCKFVI (YARAAARQARASLQYLCKFVI) [sample 22] | significant neuronal differentiation | significant neuronal differentiation
9 | YARAAARQARA-SLQHICRMSIRRVMS (YARAAARQARASLQHICRMSIRRVMS) [sample 2] | significant neuronal differentiation | significant neuronal differentiation
10 | YARAAARQARA-PLMDLCRRSVRLALG (YARAAARQARAPLMDLCRRSVRLALG) [sample 20] | significant neuronal differentiation | significant neuronal differentiation
11 | YARAAARQARA-TLQHLCRKTVNGHLD (YARAAARQARATLQHLCRKTVNGHLD) [sample 13] | significant neuronal differentiation | significant neuronal differentiation
12 | YARAAARQARA-SLQYLALKALVTPKK (YARAAARQARASLQYLALKALVTPKK-NH2) [sample 19] | significant neuronal differentiation | significant neuronal differentiation
13 | YARAAARQARA-SLQHLCRLVINRLVA (YARAAARQARASLQHLCRLVINRLVA) [sample 24] | significant neuronal differentiation | significant neuronal differentiation
14 | YARAAARQARA-TLLSLCRVAV (YARAAARQARATLLSLCRVAV) [sample 16, PTD4 plus 10 residues from the N terminal of the BC-box of mASB-1] | significant neuronal differentiation | significant neuronal differentiation
15 | YARAAARQARA-PLAHLCRLRVRKAIG (YARAAARQARAPLAHLCRLRVRKAIG) [sample 7] | significant neuronal differentiation | significant neuronal differentiation
16 | YARAAARQARA-SLKHLCRKALRSFLT (YARAAARQARASLKHLCRKALRSFLT) [sample 5] | significant neuronal differentiation | significant neuronal differentiation
17 | YARAAARQARA-SLQHLCRFRIRQLVR (YARAAARQARASLQHLCRFRIRQLVR) [sample 4] | significant neuronal differentiation | significant neuronal differentiation
18 | YARAAARQARA-SLQYLCRFVIRQYTK (YARAAARQARASLQYLCRFVIRQYTK) [sample 18] | significant neuronal differentiation | significant neuronal differentiation
19 | YARAAARQARA-SLQDLCCRAVVSCTP (YARAAARQARASLQDLCCRAVVSCTP) [sample 10] | significant neuronal differentiation | significant neuronal differentiation
20 | YARAAARQARA-SLQFLALKALISERR (YARAAARQARASLQFLALKALISERR-NH2) [sample 21] | significant neuronal differentiation | significant neuronal differentiation
21 | YARAAARQARA-SLQYICRAVICRCTT (YARAAARQARASLQYICRAVICRCTT) [sample 9] | significant neuronal differentiation | significant neuronal differentiation
22 | YARAAARQARA-ALFELCGRAV (YARAAARQARAALFELCGRAV) [sample 23, PTD4 plus 10 residues from the N terminal of the BC-box of MUF1] | significant neuronal differentiation | significant neuronal differentiation
